Data: paper PMC9047694, “Phenolic Compounds From the Stems and Leaves of Berchemia lineata (L.) DC” (Frontiers in Chemistry, 2022)

Molecular target: α-glucosidase (Saccharomyces cerevisiae, UniProt P53341)
Experiment: α-Glucosidase inhibitory assay
Assay type: biochemical
Conditions: for IC50: 4-nitrophenyl-α-D-glucopyranoside substrate, 37°C, 30 min, absorbance 405 nm, read-out: IC50 (μM), α-glucosidase inhibitory activities; for inhibitory activities against α-glucosidase (in words): conclusion statement
Protocol: IC50 values were calculated from the graph of inhibition percentage against the logarithm of the concentrations of compounds.

Sequence of α-glucosidase (P53341 whole entry): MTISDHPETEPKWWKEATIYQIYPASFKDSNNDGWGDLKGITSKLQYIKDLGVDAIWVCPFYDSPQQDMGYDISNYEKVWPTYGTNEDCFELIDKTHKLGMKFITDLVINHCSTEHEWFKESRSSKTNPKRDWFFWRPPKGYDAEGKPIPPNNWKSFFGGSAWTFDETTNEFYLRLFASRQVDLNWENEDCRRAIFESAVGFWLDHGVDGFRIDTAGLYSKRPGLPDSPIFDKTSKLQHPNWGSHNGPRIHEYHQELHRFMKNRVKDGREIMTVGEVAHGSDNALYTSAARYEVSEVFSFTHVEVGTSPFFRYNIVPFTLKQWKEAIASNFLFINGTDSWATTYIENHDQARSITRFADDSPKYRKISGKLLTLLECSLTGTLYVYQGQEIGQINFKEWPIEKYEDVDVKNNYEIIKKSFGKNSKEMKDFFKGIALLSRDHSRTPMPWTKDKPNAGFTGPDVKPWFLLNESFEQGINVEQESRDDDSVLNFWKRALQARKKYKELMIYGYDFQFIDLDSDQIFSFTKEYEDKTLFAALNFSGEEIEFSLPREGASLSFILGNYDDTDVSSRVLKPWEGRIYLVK

Compound	IC50	inhibitory activities against α-glucosidase (in words)
COc1cc(O[C@@H]2O[C@H](CO)[C@@H](O)[C@H](O)[C@H]2O)c2c(O)c3c(=O)cc(C)oc3cc2c1 [Compound 11, rubrofusarin-6-O-β-D-glucopyranoside]	28 µM	moderate inhibitory activities
COc1cc(O[C@@H]2O[C@H](CO[C@@H]3O[C@@H](C)[C@H](O)[C@@H](O)[C@H]3O)[C@@H](O)[C@H](O)[C@H]2O)c2c(O)c3c(=O)cc(C)oc3cc2c1 [Compound 12, rubrofusarin-6-O-α-L-rhamnosyl-(1→6)-O-β-D-glucopyranside]	> 50 µM	
O=c1c(O)c(-c2ccc(O)c(O)c2)oc2cc(O)cc(O)c12 [Compound 14, quercetin]		moderate inhibitory activities
O=C1c2c(O)cc(O)cc2O[C@H](c2ccc(O)cc2)[C@H]1O [Compound 17, dihydrokaempferol]		moderate inhibitory activities
vittarin-B [Compound 9]	22.5 µM	moderate inhibitory activities

Next, values leading:

IC50	inhibitory activities against α-glucosidase (in words)	Compound
	moderate inhibitory activities	O=c1c(O)c(-c2ccc(O)cc2)oc2cc(O)cc(O)c12 [Compound 15, kaempferol]
> 50 µM		COc1c(O)c(O)cc2c1C(=O)c1c(O)cc(C)cc1C2=O [Compound 18, 2-hydroxyemodin 1-methyl ether]
> 50 µM		demethylflavasperone-10-O-β-D-glucopyranoside [Compound 10]
